Columns and labels:
Experiment in all cases: relative viability (nuclei count vs DMSO), 5 days (fraction); higher = more cells survive
[1] = compound: CN(C)C(=N)NC(=N)N [Metformin] + CC1(C)CCC(c2ccc(Cl)cc2)=C(CN2CCN(c3ccc(C(=O)NS(=O)(=O)c4ccc(N[C@H](CCN5CCOCC5)CSc5ccccc5)c(S(=O)(=O)C(F)(F)F)c4)cc3)CC2)C1 [Navitoclax] (partner 0.5 µM)
Procedure, shortened: (§1)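 The day after seeding in 1536-well plates, lung cancer cell lines were treated by pin tool with a single drug, or with a fixed anchor-drug dose together with five library-drug doses (not always all listed) in √10 steps. After 5 days, a combined fix-and-stain solution (final 0.05% Triton X-100, 1% formaldehyde, 1 ug/ml Hoechst) was added. Nuclei counted on 4× images gave relative viability as treated counts over vehicle counts, reported as the median of duplicate plates.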

[2] = compound: CN(C)C(=N)NC(=N)N [Metformin] + COc1cc2c(Oc3ccc(NC(=O)C4(C(=O)Nc5ccc(F)cc5)CC4)cc3F)ccnc2cc1OCCCN1CCOCC1 [Foretinib] (partner 0.25 µM)
Procedure, shortened: as §1

[3] = compound: CN(C)C(=N)NC(=N)N [Metformin]
Procedure, shortened: (§2)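 Viability here means nuclei in treated wells divided by nuclei in vehicle wells, reported as the median across plates. Only plates with control CV below 25% and at least one doubling passed. Lung cancer cell lines in 1536-well plates were exposed to five √10-spaced library-drug doses for 5 days and counted from 4× Hoechst images in MetaXpress.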

[4] = compound: N#CC1(c2ccc(NC(=O)c3cccnc3NCc3ccncc3)cc2)CCCC1 [Apatinib]
Procedure, shortened: as §2

Cell Line	relative viability ([1]; first compound 10 µM)	relative viability ([1]; first compound 31.62 µM)	relative viability ([1]; first compound 100 µM)	relative viability ([1]; first compound 316.23 µM)	relative viability ([1]; first compound 1000 µM)	relative viability ([2]; first compound 10 µM)	relative viability ([2]; first compound 31.62 µM)	relative viability ([2]; first compound 100 µM)	relative viability ([2]; first compound 316.23 µM)	relative viability ([2]; first compound 1000 µM)	relative viability ([3]; 10 µM)	relative viability ([3]; 31.62 µM)	relative viability ([3]; 100 µM)	relative viability ([3]; 316.23 µM)	relative viability ([3]; 1000 µM)	relative viability ([4]; 0.08 µM)	relative viability ([4]; 0.253 µM)	relative viability ([4]; 0.8 µM)	relative viability ([4]; 2.53 µM)	relative viability ([4]; 8 µM)
NCI-H3122	0.937	0.955	0.969	0.933	0.89	0.946	0.951	0.944	0.806	0.919	0.817	0.939	0.891	0.819	0.872	1	0.988	0.98	0.969	1.03
NCI-H1651	1.14	1.38	1.27	1.21	1.46	1.01	0.765	1.03	0.802	1.02	1.08	1.17	1.12	1.11	1.11	0.988	0.984	0.986	0.939	0.871
COR-L23	0.984	0.839	0.909	0.932	1.04	0.88	0.861	0.863	0.836	0.975	0.979	1.06	0.974	0.977	1	1.04	0.942	1.05	0.914	0.865
A-427	1.01	1	0.969	0.978	0.887	1.12	1.2	0.954	0.981	1.23	1.05	1.02	0.985	1.01	1.05	1.09	0.967	0.965	0.926	0.906
NCI-H2342	–	–	–	–	–	0.972	1.15	1.07	1	1.21	0.665	1.03	1.04	0.935	1.07	0.899	0.909	0.998	0.929	0.941
201T	–	1.26	1.17	1.16	1.17	–	1.21	1.38	1.01	0.824	–	1.08	1.06	0.934	1.01	0.983	0.961	0.982	0.871	0.894
NCI-H522	–	–	–	–	–	–	–	–	–	–	1.24	1.09	1.05	0.942	1.11	1	1.04	1.1	0.916	0.928
NCI-H2023	–	0.973	0.876	–	0.567	0.99	0.828	0.854	0.909	0.47	0.782	1.13	0.921	0.853	0.769	1.01	0.94	0.974	0.881	0.883
NCI-H2085	1.08	1.12	1.05	1.07	1.11	0.854	0.892	0.865	1.04	1.19	0.977	0.939	0.956	0.977	0.991	0.986	0.979	0.953	0.92	0.971
LXF-289	0.912	0.918	0.939	0.914	0.901	0.873	0.918	0.879	0.916	0.912	0.872	0.927	0.95	0.946	0.99	0.989	0.976	0.981	0.943	0.951
NCI-H1975	1.23	1.32	1.28	1	1.23	1.16	1.1	1.08	1.06	1.21	1.06	1.16	1.09	1.12	1.21	0.97	0.981	0.91	0.844	0.943
LU99A	0.693	0.743	0.677	0.814	0.749	0.57	0.676	0.643	0.596	0.677	0.946	0.894	0.785	0.792	0.915	0.923	1.11	0.95	0.925	0.83
NCI-H661	–	–	–	–	–	0.809	0.877	0.879	0.834	0.916	0.801	0.964	0.911	0.875	0.893	0.973	0.908	0.973	0.929	0.948
NCI-H1563	–	–	–	–	–	0.99	1.02	1.09	1.01	1.05	0.954	1.11	1.16	1.07	1.14	0.961	1.08	0.98	0.931	0.867
NCI-H1623	–	–	–	–	–	0.799	0.811	1.02	1.01	0.864	0.985	0.982	1.08	0.909	1.03	1	0.924	0.966	0.946	0.593
NCI-H1648	–	–	–	–	–	–	–	–	–	–	0.937	1.11	1.28	1.08	1.16	1.18	0.735	0.722	0.591	0.498
NCI-H1792	–	0.528	0.857	0.538	0.617	–	–	–	–	–	0.901	0.969	1.06	1.01	1.05	0.884	0.883	0.887	0.863	0.725
NCI-H650	–	–	–	–	–	1.18	1.31	1.23	1.24	1.18	1.02	1.1	0.816	0.953	1.07	0.979	0.927	1	0.745	0.763
LCLC-103H	–	–	–	–	–	0.823	1.09	0.881	0.781	0.923	0.848	1.01	1.07	1.01	1.02	0.998	0.956	0.956	0.912	0.942

— the supplement of paper PMC10307832
